From patent US12465050B2, “Compositions comprising a pyridine carboxylate herbicide and protoporphyrinogen oxidase (protox) inhibitor herbicides” (priority 2018, dated 2025)

Key:
Assay type in all cases: in vivo
[1] = test system: Matricaria chamomilla (wild chamomile); assay: Greenhouse postemergence herbicidal effect on MATCH
Description: (§1) Greenhouse Trial Methodology—Evaluation of Postemergence Herbicidal Effect
(§2) Seeds of the desired test plant species were planted in a 90:10% v/v (volume/volume) mixture of PRO-MIX® BX (Premier Tech Horticulture, Quakertown, Pa., USA) and PROFILE® GREENS GRADE™ (Profile Products LLC, Buffalo Grove, Ill., USA) planting mixture, which typically has a pH of 5.2 to 6.2 and an organic matter content of at least 50 percent, in plastic pots with a surface area of 103.2 square centimeters (cm^2). In some aspects or embodiments, to help ensure good germination and healthy plants, a fungicide treatment and/or other chemical or physical treatment was applied. The plants were grown for 7-36 days (d) in a greenhouse with an approximate 14-hour (h) photoperiod which was maintained at about 23° C. during the day and 22° C. during the night. Nutrients and water were added on a regular basis and supplemental lighting was provided with overhead metal halide 1000-Watt lamps as necessary. The plants were employed for testing when they reached the second or third true leaf stage.
(§3) Emulsifiable concentrates of each of each pyridine carboxylate herbicide (Compound A or Compound B) were prepared at 100 grams acid equivalent per liter (g ae/L). The emulsifiable concentrates also included a safener, cloquintocet mexyl, at 120 grams active ingredient per liter (g ai/L). An aliquot of each emulsifiable concentrate was placed in a 25 mL glass vial and diluted with an aqueous mixture of 1.25% (v/v) ACTIROB® B esterified rapeseed oil (Bayer Crop Science, Research Triangle Park, N.C., USA) or MSO® Concentrate with LECI-TECH® methylated soybean oil (Loveland Products, Loveland, Colo., USA) to obtain concentrated stock solutions at the highest application rate for each herbicide, based upon a 12 milliliter (mL) application volume at a rate of 187 liters per hectare (L/ha). The concentrated stock solutions were further diluted with an aqueous mixture of 1.25% v/v ACTIROB® B or MSO® Concentrate with LECI-TECH® to obtain stock solutions at reduced application rates for each herbicide. Spray solutions of the herbicide combinations (Compound A or Compound B plus PROTOX inhibitor herbicide) were prepared by adding weighed amounts or aliquots of the PROTOX inhibitor herbicides to the stock solutions of Compound A or Compound B to form 12-mL spray solutions in two-way combinations.
(§4) The spray solutions were applied to the plant material with an overhead Mandel track sprayer equipped with 8002E nozzles calibrated to deliver 187 L/ha over an application area of 0.503 square meters (m^2) at a spray height of 18 inches (43 centimeters (cm)) above the average plant canopy. Control plants were sprayed in the same manner with the solvent blank. All pyridine carboxylate herbicide (component a) application rates are given as “g ae/ha” and all PROTOX inhibitor herbicide (component b) application rates are given as “g ai/ha.”
(§5) The treated plants and control plants were placed in a greenhouse as described above and watered by sub-irrigation to prevent wash-off of the test compounds. After 20-22 d, the condition of the test plants as compared with that of the control plants was determined visually and scored on a scale of 0 to 100 percent where 0 corresponds to no injury and 100 corresponds to complete kill.

[2] = test system: Amaranthus retroflexus (pigweed); assay: Greenhouse postemergence herbicidal effect on AMARE
Description: as §1, §2, §3, §4, §5

[3] = test system: Brassica napus (spring rape); assay: Greenhouse postemergence herbicidal effect on BRSNN
Description: as §1, §2, §3, §4, §5

[4] = test system: Cirsium arvense (Canadian thistle); assay: Greenhouse postemergence herbicidal effect on CIRAR
Description: as §1, §2, §3, §4, §5

[5] = test system: Matricaria discoidea (pineapple weed); assay: Greenhouse postemergence herbicidal effect on MATMT
Description: as §1, §2
as §3, with “combinations. […]” for “combinations.”
as §5

[6] = test system: Digitaria sanguinalis (large crabgrass); assay: Greenhouse postemergence herbicidal effect on DIGSA
Description: as §1, §2
Emulsifiable concentrates of each of each pyridine carboxylate herbicide (Compound A or Compound B) were prepared at 100 grams acid equivalent per liter (g ae/L). The emulsifiable concentrates also included a safener, cloquintocet mexyl, at 120 grams active ingredient per liter (g ai/L). […]
as §5

[7] = Compound A 7.5, Oxyfluorfen 0 g/ha
[8] = Compound A 7.5, Pyraflufen-ethyl 0 g/ha
[9] = Compound A 10, Oxyfluorfen 0 g/ha
[10] = Compound A 10, Pyraflufen-ethyl 0 g/ha
[11] = Compound A 15, Oxyfluorfen 0 g/ha
[12] = Compound A 7.5, Saflufenacil 0 g/ha
[13] = Compound A 10, Saflufenacil 0 g/ha

Q: `N#CCOC(=O)c1nc(-c2ccc3cc[nH]c3c2F)c(F)c(N)c1Cl` [Compound A, cyanomethyl 4-amino-3-chloro-5-fluoro-6-(7-fluoro-1H-indol-6-yl)pyridine-2-carboxylate] was tested. Which “% visual injury, Obs” value [1, 7] did it give?
A: 23%

Q: What about the “% visual injury, Obs” value [1, 8] of the same compound?
A: 10%

Q: And the “% visual injury, Obs” value [1, 9]?
A: 35%

Q: What about the “% visual injury, Obs” value [1, 10] of the same compound?
A: 20%

Q: What about the “% visual injury, Obs” value [1, 11] of the same compound?
A: 45%

Q: And the “% visual injury, Obs” value [2, 8]?
A: 90%

Q: What about the “% visual injury, Obs” value [2, 12] of the same compound?
A: 88%

Q: And the “% visual injury, Obs” value [2, 10]?
A: 85%

Q: What about the “% visual injury, Obs” value [2, 13] of the same compound?
A: 88%

Q: And the “% visual injury, Obs” value ([3]; Compound A 7.5, Bifenox 0 g/ha)?
A: 23%

Q: What about the “% visual injury, Obs” value ([3]; Compound A 7.5, Pyraclonil 0 g/ha) of the same compound?
A: 55%

Q: And the “% visual injury, Obs” value [3, 12]?
A: 65%

Q: What about the “% visual injury, Obs” value ([3]; Compound A 10, Bifenox 0 g/ha) of the same compound?
A: 45%

Q: And the “% visual injury, Obs” value ([3]; Compound A 10, Pyraclonil 0 g/ha)?
A: 60%

Q: What about the “% visual injury, Obs” value [3, 13] of the same compound?
A: 65%

Q: What about the “% visual injury, Obs” value ([4]; Compound A 7.5, Bifenox 0 g/ha) of the same compound?
A: 70%

Q: And the “% visual injury, Obs” value [4, 7]?
A: 50%

Q: And the “% visual injury, Obs” value [4, 8]?
A: 40%

Q: And the “% visual injury, Obs” value ([4]; Compound A 10, Bifenox 0 g/ha)?
A: 68%

Q: What about the “% visual injury, Obs” value [4, 9] of the same compound?
A: 63%

Q: What about the “% visual injury, Obs” value [4, 10] of the same compound?
A: 55%

Q: What about the “% visual injury, Obs” value [4, 11] of the same compound?
A: 63%

Q: And the “% visual injury, Obs” value [5, 7]?
A: 20%

Q: And the “% visual injury, Obs” value [5, 9]?
A: 20%

Q: What about the “% visual injury, Obs” value [5, 11] of the same compound?
A: 63%

Q: What about the “% visual injury, Obs” value ([6]; Compound A 7.5, Bifenox 0 g/ha) of the same compound?
A: 13%

Q: What about the “% visual injury, Obs” value ([6]; Compound A 10, Bifenox 0 g/ha) of the same compound?
A: 25%
